Results taken from US20160090578A1, “ENZYMES […] GLYCOSYLATION OF POLYPHENOLS” (priority 2013, published 2016).

Assays:
MgtT = settings: E. coli DH5α pDrive::mgtT, whole cell catalysis
Method: (§3) For the detection of flavonoid modifications in bacteria a biotransformation approach was used. Cultures were grown in LB medium with appropriate antibiotic overnight. Expression cultures were prepared as stated above for overproduction of enzymes. The cells were sedimented by centrifugation at 4,500 g and resuspended in 50 mM sodium phosphate buffer pH 7 supplemented with 1% (w/v) α-D-glucose. Biotransformations with a final concentration of 100 μM flavonoid inoculated from stock solutions of 100 mM in DMSO, i.e. 0.1%, were incubated in Erlenmeyer flasks at 30° C. and 175 rpm up to 24 hours. Samples of 4 mL were withdrawn and acidified with 100 μL H3PO4 aq for extraction in 2 mL ethyl acetate. They were shaken for 1 minute and phase separated by centrifugation at 2,000 g and 4° C. The supernatant was applied in TLC analysis. For quantification, samples of 100 μL were taken and dissolved 1/10 in ethyl acetate/acetic acid 3:1. These acidified ethyl acetate samples were centrifuged at 10,000 g. The supernatant was used for quantitative TLC analysis as stated below.

MgtB = assay: Biocatalytic reactions with purified recombinant His-tagged MgtB and UDP-glucose, quantified by TLC; type: biochemical, Bacillus sp. HH1500; settings: for Acceptor substrate modification by His10-MgtB (in words): 500 μM UDP-α-D-glucose as donor, 100 μM acceptor substrate; for Conversion (%): 1 mL, 37° C., 2 hours, triplicate, 500 μM UDP-glucose, 100 μM flavonoid, 5 μg/mL purified recombinant MgtB
Method: (§1) The supernatant transferred into HPLC flat bottom vials was used for TLC analysis. Samples of 20 μL were applied on 20×10 cm^2 (HP)TLC silica 60 F254 plates (Merck KGaA, Darmstadt, Germany) versus 200 pmol of reference flavonoids. To avoid carryover of substances, i.e. prevent false positives, samples were spotted with double syringe rinsing in between by the ATS 4. The sampled TLC plates were developed in ethyl acetate/acetic acid/formic acid/water 100:11:11:27 (‘Universal Pflanzenlaufmittel’) (41). After separation the TLC plates were dried in an oven at 80° C. for five minutes. The absorbance of the separated bands was determined densitometrically depending on the absorbance maximum of the applied educt substances at 285 to 370 nm using the deuterium lamp in a TLC Scanner 3 (CAMAG, Muttenz, Switzerland). Subsequently, the substances on developed TLC plates were derivatized by dipping the plates in a methanolic solution of 1% (w/v) diphenyl boric acid β-aminoethyl ester (DPBA) (42) for one second using a Chromatogram Immersion Device (CAMAG, Muttenz, Switzerland) followed by drying the TLC plates in hot air with a fan. After two minutes the bands were visualized at 365 nm with a UV hand lamp and photographed. Alternatively, fluorescence of the bands was determined densitometrically by the TLC Scanner 3 depending on the absorbance maximum of the applied substances at 320 to 370 nm.
(§2) Samples of 20 μL were sprayed by an ATS 4 (CAMAG, Muttenz, Switzerland) on HPTLC silica 60 F254 plates (Merck KGaA, Darmstadt, Germany) versus different amounts of respective standard educt and product substances. TLC plates were developed, dried, derivatized and analyzed as stated above. Regression curves were calculated from the peak area of the applied reference substances to determine the amount of produced and residual flavonoids.

GtfC = assay: Biotransformation assays with E. coli expressing recombinant GtfC, quantified by TLC; type: cell-based, Elbe river sediment metagenome; settings: for Conversion (%): whole-cell biotransformation, 50 mL, 50 mM sodium phosphate buffer pH 7.0, 1% (w/v) glucose, 200 μM flavonoid, 30° C., triplicate; for Conversion in GtfC biotransformation (in words): whole-cell biotransformation with E. coli expressing GtfC
Method: The supernatant was applied in TLC analysis.
as §1, §2

MgtC = type: cell-based, Bacillus sp. BCG+1; settings: E. coli DH5α pDrive::mgtC, whole cell catalysis
MgtW = settings: E. coli DH5α pDrive::mgtW, whole cell catalysis
Method: as §3

Row | Compound | Acceptor substrate modification by His10-MgtB (in words) (MgtB) | Conversion (%) (MgtB) | Conversion (%) (GtfC) | Reaction in biotransformation with MgtC (MgtC) | other results
1 | Cc1cc(=O)oc2cc(O)ccc12 [4-Methylumbelliferone, 7-Hydroxy-4-methylcoumarin] |  |  |  |  | Reaction in biotransformation with MgtT (MgtT): shown
2 | O=c1c(-c2ccc(O)cc2)coc2cc(O)cc(O)c12 [Genistein] | modified with high yields | 72% | 68% |  | 
3 | O=c1c(O)c(-c2ccc(O)cc2)oc2cc(O)cc(O)c12 [Kaempferol] | modified with high yields | ~100% | ~100% |  | Conversion (%) (MgtB; listed as kaempferol): approximately 100%
4 | O=c1cc(-c2ccc(O)c(O)c2)oc2cc(O)cc(O)c12 [Luteolin] | modified with high yields | 82% | 86% | shown | 
5 | COc1ccc(-c2cc(=O)c3ccc(O)cc3o2)cc1 [Pratol] |  |  |  |  | Conversion in GtfC biotransformation (in words) (GtfC): converted weakly
6 | O=c1c(O)c(-c2ccc(O)c(O)c2)oc2cc(O)cc(O)c12 [Quercetin] | modified with high yields | ~100% | ~100% | shown | Conversion (%) (MgtB; listed as quercetin): approximately 100%; Reaction in biotransformation with MgtW (MgtW): shown; Conversion in GtfC biotransformation (in words) (GtfC): transformed almost completely
7 | O=C(/C=C/c1ccc(O)cc1)OC[C@H]1O[C@@H](Oc2c(-c3ccc(O)cc3)oc3cc(O)cc(O)c3c2=O)[C@H](O)[C@@H](O)[C@@H]1O [Tiliroside, kaempferol-3-O-6″-coumaroyl-glucoside] | modified with high yields | 83% |  |  | 
8 | COc1cc(O)c(CC=C(C)C)c(O)c1C(=O)/C=C/c1ccc(O)cc1 [Xanthohumol] |  |  | 52% |  | 
9 | O=c1cc(-c2ccc(O)cc2)oc2cc(O)cc(O)c12 [apigenin] |  |  |  | shown | 
10 | COc1cc([C@@H]2CC(=O)c3c(O)cc(O)cc3O2)ccc1O [homoeriodytiol] |  |  |  | shown | Reaction in biotransformation with MgtW (MgtW): shown; Reaction in biotransformation with MgtT (MgtT): shown
11 | Cc1cc(=O)c2c(O)cc(O)cc2o1 [noreugenin] |  |  |  | shown | 
12 | O=C(CCc1ccc(O)cc1)c1c(O)cc(O)cc1O [phloretin] |  |  |  | shown | Reaction in biotransformation with MgtW (MgtW): shown; Reaction in biotransformation with MgtT (MgtT): shown
13 | Oc1ccc(/C=C/c2cc(O)cc(O)c2)cc1 [t-Resveratrol] |  |  | 96% |  | 
